Results reported in patent US8017780B1, “Therapeutic compounds and uses thereof” (Myrexis, Inc., priority 2008, dated 2011).

molecular target: T1, purified human Hsp90; experiment: Hsp90 binding assay: displacement of BODIPY-labeled geldanamycin by fluorescence polarization; conditions: BODIPY-GM 10 nM, purified human Hsp90 30 nM, overnight at room temperature; read-out: GM Displacement From Purified Hsp90 measured by FP
T1 construct: purified human Hsp90 (Stressgen, SPP-770)
Protocol: The binding of exemplary compounds to purified Hsp90 can be assayed by measuring the displacement of BODIPY-labeled geldanamycin (BODIPY-GM) from purified human Hsp90, using a fluorescence polarization assay adapted from Kim et al. (Journal of Biomolecular Screening […]. Compound dilutions (in 100% DMSO) are added to black-bottom 96-well plates (Greiner; 2% DMSO final), and equal volumes of BODIPY-GM (10 nM final) and purified human Hsp90 (Stressgen, SPP-770; 30 nM final) in assay buffer (20 mM HEPES-KOH pH 7.3, 50 mM KCl, 5 mM MgCl2, 20 mM Na2MoO4, 0.01% NP-40, 0.1 mg/mL bovine gamma globulin [Invitrogen, P2045], 2 mM DTT) are added sequentially to yield a final volume of 50 microliters. Plates are incubated overnight at room temperature. Parallel and perpendicular fluorescence measurements are read (LJL BioSystems Analyst AD plate reader) at excitation/emission wavelengths of 485/530 nm. Background fluorescence (buffer only) is subtracted, and fluorescence polarization (FP) values, expressed in mP units, are calculated from parallel and perpendicular fluorescence readings as follows: FP=(parallel−perpendicular)/(parallel+perpendicular)*1000.
Percent inhibition is calculated by normalizing the FP values to those obtained in parallel reactions containing DMSO and subtracting these normalized values from 100%. Intrinsic compound fluorescence is independently monitored, and FP data points confounded by compound fluorescence are excluded from the analysis.

IC50	Compound
5000 nM	Nc1nccc2c1nc(Sc1cc3c(cc1Br)OCO3)n2CCC1CCN(C=O)CC1 [Example 1, 4-(2-[4-Amino-2-[(6-bromo-1,3-benzodioxol-5-yl)sulfanyl]-1H-imidazo[4,5-c]pyridin-1-yl]ethyl)piperidine-1-carbaldehyde]
5000 nM	CC(=O)N1CCC(CCn2c(Sc3cc4c(cc3Br)OCO4)nc3c(N)nccc32)CC1 [Example 2, 1-[4-(2-{4-Amino-2-[(6-bromo-1,3-benzodioxol-5-yl)sulfanyl]-1H-imidazo[4,5-c]pyridin-1-yl}ethyl)piperidin-1-yl]ethanone]
2400 nM	Nc1nccc2c1nc(Sc1cc3c(cc1Br)OCO3)n2CCc1ccccc1Cl [Example 3, 2-[(6-Bromo-1,3-benzodioxol-5-yl)sulfanyl]-1-[2-(2-chlorophenyl)ethyl]-1H-imidazo[4,5-c]pyridin-4-amine]
1000 nM	C[C@H](O)C(=O)N1CCC(CCn2c(Sc3cc4c(cc3Br)OCO4)nc3c(N)nccc32)CC1 [Example 5, (2S)-1-[4-(2-{4-Amino-2-[(6-bromo-1,3-benzodioxol-5-yl)sulfanyl]-1H-imidazo[4,5-c]pyridin-1-yl}ethyl)piperidin-1-yl]-2-hydroxypropan-1-one]
110 nM	CN(C)c1cc2c(cc1Sc1nc3c(N)nccc3n1CCC1CCN(C=O)CC1)OCO2 [Example 8]
79 nM	CC(=O)O[C@@H](C)C(=O)N1CCC(CCn2c(Sc3cc4c(cc3N(C)C)OCO4)nc3c(N)nccc32)CC1 [Example 9, (2S)-1-[4-(2-{4-Amino-2-[(6-(dimethylamino)-1,3-benzodioxol-5-yl)sulfanyl]-1H-imidazo[4,5-c]pyridin-1-yl}ethyl)piperidin-1-yl]-1-oxopropan-2-yl acetate]
110 nM	C[C@H](O)C(=O)N1CCC(CCn2c(Sc3cc4c(cc3N(C)C)OCO4)nc3c(N)nccc32)CC1 [Example 10, (2S)-1-[4-(2-{4-Amino-2-[(6-(dimethylamino)-1,3-benzodioxol-5-yl)sulfanyl]-1H-imidazo[4,5-c]pyridin-1-yl}ethyl)piperidin-1-yl]-2-hydroxypropan-1-one]
